In series [1] the target is T1, human COX-2 (Homo sapiens, UniProt P35354).
T1 construct: purchased Cayman Chemical (Ann Arbor, Mich.)
T1 sequence (P35354 18-604): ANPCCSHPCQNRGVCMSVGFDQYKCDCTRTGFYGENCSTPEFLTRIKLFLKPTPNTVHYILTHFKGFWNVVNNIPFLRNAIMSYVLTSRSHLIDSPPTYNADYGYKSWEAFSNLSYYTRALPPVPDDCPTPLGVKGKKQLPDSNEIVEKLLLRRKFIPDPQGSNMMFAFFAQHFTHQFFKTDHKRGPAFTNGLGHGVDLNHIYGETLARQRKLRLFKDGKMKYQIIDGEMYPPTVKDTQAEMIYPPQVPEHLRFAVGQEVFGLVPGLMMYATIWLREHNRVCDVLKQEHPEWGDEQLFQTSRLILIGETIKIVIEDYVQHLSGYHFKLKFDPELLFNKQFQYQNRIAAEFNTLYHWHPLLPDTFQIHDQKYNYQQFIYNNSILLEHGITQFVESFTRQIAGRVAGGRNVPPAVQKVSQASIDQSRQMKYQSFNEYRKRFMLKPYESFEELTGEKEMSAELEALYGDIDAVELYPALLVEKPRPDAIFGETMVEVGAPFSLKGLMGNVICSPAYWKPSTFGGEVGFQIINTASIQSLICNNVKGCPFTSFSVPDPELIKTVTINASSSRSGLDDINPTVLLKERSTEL
The experiment in a line: COX-2 purified enzyme assay (Cayman Chemical kit, PGH2 production detected as PGF2α by EIA). Type of series: biochemical. Conditions: for COX-2 selectivity (IC50 for COX-1/IC50 for COX-2): ovine COX-1 vs human COX-2, purified enzymes; for IC50: purified human COX-2, read-out: IC50 for inhibition of COX-2. From the text:
. Because COX-1 and COX-2 convert arachidonic acid to prostaglandin H2 (PGH2), one can assess COX inhibitory activity of a test compound by measuring the effect of the compound on PGH2 production in the presence of purified COX-1 enzyme and, in a separate assay, in the presence of purified COX-2 enzyme. In this assay, the production of PGH2 can be measured by reducing PGH2 to prostaglandin F2α (PGF2α) with SnCl2 and then detecting PGF2α by enzyme immunoassay (EIA) using a suitable antibody.
. Using the methods described above, the inhibition of human COX-2 and ovine COX-1 by desbenzoylindomethacin was measured. […]

Series [2] concerns the target T2, ovine COX-1 (Ovis aries, UniProt P05979).
T2 construct: purchased Cayman Chemical (Ann Arbor, Mich.)
T2 sequence (P05979 25-600): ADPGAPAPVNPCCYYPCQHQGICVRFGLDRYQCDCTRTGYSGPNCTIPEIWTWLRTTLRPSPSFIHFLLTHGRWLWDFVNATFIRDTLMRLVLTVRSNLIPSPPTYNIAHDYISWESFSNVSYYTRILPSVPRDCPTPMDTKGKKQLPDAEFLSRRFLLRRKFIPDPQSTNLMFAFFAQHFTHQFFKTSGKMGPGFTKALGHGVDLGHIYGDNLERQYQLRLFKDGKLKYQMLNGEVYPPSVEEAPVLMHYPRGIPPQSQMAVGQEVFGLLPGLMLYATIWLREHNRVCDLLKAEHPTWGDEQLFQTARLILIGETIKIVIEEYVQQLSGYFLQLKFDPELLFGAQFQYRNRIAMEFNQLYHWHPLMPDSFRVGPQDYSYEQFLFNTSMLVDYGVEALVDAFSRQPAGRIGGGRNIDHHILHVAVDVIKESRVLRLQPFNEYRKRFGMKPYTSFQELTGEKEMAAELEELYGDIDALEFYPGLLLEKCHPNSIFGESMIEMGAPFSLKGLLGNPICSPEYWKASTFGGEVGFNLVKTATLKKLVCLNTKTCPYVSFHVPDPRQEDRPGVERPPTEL
The experiment in a line: COX-1 purified enzyme assay (Cayman Chemical kit, PGH2 production detected as PGF2α by EIA). In kind it is biochemical. The conditions noted are these: purified ovine COX-1; read-out: IC50 for inhibition of COX-1. The source says: Because COX-1 and COX-2 convert arachidonic acid to prostaglandin H2 (PGH2), one can assess COX inhibitory activity of a test compound by measuring the effect of the compound on PGH2 production in the presence of purified COX-1 enzyme and, in a separate assay, in the presence of purified COX-2 enzyme. In this assay, the production of PGH2 can be measured by reducing PGH2 to prostaglandin F2α (PGF2α) with SnCl2 and then detecting PGF2α by enzyme immunoassay (EIA) using a suitable antibody.
Using the methods described above, the inhibition of human COX-2 and ovine COX-1 by desbenzoylindomethacin was measured.

For series [3], the system named is prostaglandin synthesis. Conditions: reported by Shen and Winter 1977; cited from earlier work.

Consider `Cc1c(CC(=O)O)c2cc(O)ccc2n1C(=O)c1ccc(Cl)cc1` [desmethylindomethacin, 1-(p-Chlorobenzoyl)-5-hydroxy-2-methylindole-3-acetic acid], for which the “COX-2 selectivity (IC50 for COX-1/IC50 for COX-2)” value in series [1] is on record as 50-150. Besides, the IC50 in series [1] is 0.1 to 0.3 µM; in series [2], 15 µM. Also, in series [3], the “ability to inhibit prostaglandin synthesis” value is recorded as “some ability to inhibit prostaglandin synthesis”.

For `Cc1c(CC(=O)O)c2cc(O)ccc2n1C(=O)c1ccccc1` [compound 5, (1-benzoyl-5-hydroxy-2-methyl-1H-indol-3-yl)acetic acid], the melting point lay in the range of 186 to 188 °C.

Regarding `COc1ccc2[nH]c(C)c(CC(=O)O)c2c1` [desbenzoylindomethacin], in series [1] (COX-1 and COX-2 purified enzyme assays), the “potency reduced relative to indomethacin” value is on record as about 100 fold. Further, in series [1], the “COX-2 selectivity (IC50 for COX-1/IC50 for COX-2)” value is recorded as 1.6 and the half-maximal inhibitory concentration (IC50) came to 12 µM. The IC50 in series [2] came to 20 µM.

Turning to `Cc1c(CC(=O)O)c2cc(O)c(F)cc2n1C(=O)c1ccccc1` [compound 12, (1-benzoyl-6-fluoro-5-hydroxy-2-methyl-1H-indol-3-yl)acetic acid], the melting point is 159 to 161 °C.

(Values after patent US20070293542A1, “Selective Cox-2 Inhibitors” (priority 2003, published 2007).)
